Test results reported in patent US20110206673A1, “POLYPEPTIDES AND POLYNUCLEOTIDES FOR ARTEMIN AND RELATED LIGANDS, AND METHODS OF USE THEREOF” (priority 2007, published 2011).

Legend:
MCF-7 cells = test: Soft agar growth assay (96-well, MTT readout); format: cell-based, human
Protocol: To perform soft agar colony formation assays, 50 μl of 0.5% agarose in serum containing medium was plated onto each well of 96-well flat-bottom microplates, as a base agar layer. Next, 5×10^3 cells in a 100 μl mixture of 0.35% agarose in serum containing medium were plated onto the base layer. Subsequently, 100 μl of the medium was added to prevent drying of the agarose gels. For antibody treatment, the antibodies at the indicated concentrations were added into the top agar layer and the culture medium to ensure the complete exposure of cells to antibodies. The plates were incubated at 37° C. in a humidified incubator. The top culture medium including the antibodies was changed every 3 days. After 10 days, 20 μl of 5 mg/ml MTT (Sigma Chemical Company, St Louis, Mo., USA) was added into each well and incubated at 37° C. for 4 hours followed by adding 100 μl of acidified lysis buffer (0.01% HCl in 10% SDS). The plate was incubated at 42° C. to ensure a homogenous mixture. The plate was shaken briefly and then read at 595 nm (test wavelength) and 690 nm (reference wavelength) using the Synergy™ 2 Multi-Mode Microplate Reader (BioTek instruments, Inc., Vermont, USA).

[1] = test system: MCF7-ARTN and MCF7-Vec cells; test: MTT assay of chemotherapy drug induced death; format: cell-based, human; settings: 10% serum; both MCF7-ARTN and MCF7-Vec cells
Protocol: MTT (3-[4,5-dimethylthiazol-2-yl]-2,5-diphenyl tetrazolium bromide) assays were used measure cell proliferation. Cells were seeded into 96 well flat bottom tissue culture microplates in 100 μl RPMI-1640 culture medium containing 10% FBS at a concentration of 5×10^3 cells/well. On assay day, 10 μl of the MTT labelling reagent was added at a final concentration 0.5 mg/ml to each well and the cells were labelled for 5 h in the incubator. At the end of the incubation period, the media was removed and the converted dye was solubilised with 100 μl solubilising solution (0.01N HCl in 10% SDS in water). The plates were then sealed and placed at 37° C. overnight to completely solubilise the purple formazan crystals. The absorbance of the converted dye was measured using Spectra Max 250 multiplate reader at a wavelength of 570 nm with background subtraction at 650 nm. Each treatment was performed at least in triplicate.

[2] = test system: MCF-7 breast cancer cells; settings: cited from earlier work
[3] = test system: MCF7-ARTN and MCF7-Vec cells; test: Soft agar colony formation in the presence of Tamoxifen (six-well); format: cell-based, human; settings: 1 μM and 5 μM
Protocol: For soft agar colony formation assay, cells were cultured in 6-well plates first covered with a layer of agar (0.5%). Cells were grown in RPMI 1640 media containing 10% FBS. The middle layer included 5×10^3 cells in 0.35% agar in RPMI 1640 media containing 10% FBS. Media was added as the top layer to prevent drying of the agarose gels. The plates were incubated at 37° C. in a humidified incubator for 14 days. After this, cells were stained with 0.5 ml of 0.005% crystal violet in distilled water for 1 h and distained for 2 h in water. Colonies were inspected and photographed.

C[C@]12CC[C@@H]3c4ccc(O)cc4C[C@@H](CCCCCCCCC[S+]([O-])CCCC(F)(F)C(F)(F)F)[C@H]3[C@@H]1CC[C@@H]2O (stereo partly drawn) [Faslodex, Faslodex (ICI 182,780)]
soft agar growth compared with controls (MCF-7 cells; Faslodex (ICI 182,780) 100 nM alone): 55.8%

CC/C(=C(\c1ccccc1)c1ccc(OCCN(C)C)cc1)c1ccccc1 [Tamoxifen]
cell death (MTT viability) [1]: caused cell death in a dose dependent manner | effect at lower concentrations ([2]; 0.1-1 μM): induce a cell-cycle arrest | effect at pharmacological concentrations ([2]; above 5 μM): induce apoptosis | soft agar growth compared with controls (MCF-7 cells; Tamoxifen 1 μM alone): 40.4% | number of colonies formed in soft agar [3]: reduced the number of colonies
